The values below come from patent US9234000B2, “Benzylamine derivatives as inhibitors of plasma kallikrein” (KalVista Pharmaceuticals Limited, priority 2011, dated 2016).

One assay has as its target Human plasma kallikrein (Homo sapiens (Human), UniProt P03952). The assay can be described thus: Determination of the IC50 for plasma kallikrein. The assay is classed as biochemical. The note with it: 37° C., read-out: IC50 (human PKal). The procedure: Determination of the IC50 for Plasma Kallikrein
Plasma kallikrein inhibitory activity in vitro was determined using standard published methods (see e.g. Johansen et al., Int. J. Tiss. Reac. 1986, 8, 185; Shori et al., Biochem. Pharmacol., 1992, 43, 1209; Stiirzebecher et al., Biol. Chem. Hoppe-Seyler, 1992, 373, 1025). Human plasma kallikrein (Protogen) was incubated at 37° C. with the fluorogenic substrate H-DPro-Phe-Arg-AFC and various concentrations of the test compound. Residual enzyme activity (initial rate of reaction) was determined by measuring the change in optical absorbance at 410 nm and the IC50 value for the test compound was determined.

The target of a further assay is Human KLK1 (Homo sapiens (Human), UniProt P06870). The assay can be described thus: Determination of the IC50 for KLK1. Type of assay: biochemical. The note with it: Human KLK1, 37° C., substrate H-DVal-Leu-Arg-AFC. Here is the method: Determination of the IC50 for KLK1
KLK1 inhibitory activity in vitro was determined using standard published methods (see e.g. Johansen et al., Int. J. Tiss. Reac. 1986, 8, 185; Shori et al., Biochem. Pharmacol., 1992, 43, 1209; Stürzebecher et al., Biol. Chem. Hoppe-Seyler, 1992, 373, 1025). Human KLK1 (Callbiochem) was incubated at 37° C. with the fluorogenic substrate H-DVal-Leu-Arg-AFC and various concentrations of the test compound. Residual enzyme activity (initial rate of reaction) was determined by measuring the change in optical absorbance at 410 nm and the IC50 value for the test compound was determined.

Where [1] appears, read: fluorogenic substrate H-DPro-Phe-Arg-AFC.

Read-outs that look alike come from different tables or passages of the source.

Sequence of Human KLK1 (P06870 25-262): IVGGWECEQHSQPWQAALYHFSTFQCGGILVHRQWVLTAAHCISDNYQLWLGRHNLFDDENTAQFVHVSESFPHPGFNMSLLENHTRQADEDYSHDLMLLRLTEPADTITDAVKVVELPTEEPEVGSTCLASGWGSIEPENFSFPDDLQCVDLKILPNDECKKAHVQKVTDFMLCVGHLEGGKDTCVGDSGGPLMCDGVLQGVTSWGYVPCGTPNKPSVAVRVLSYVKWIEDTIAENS
Sequence of Human plasma kallikrein (P03952 391-638): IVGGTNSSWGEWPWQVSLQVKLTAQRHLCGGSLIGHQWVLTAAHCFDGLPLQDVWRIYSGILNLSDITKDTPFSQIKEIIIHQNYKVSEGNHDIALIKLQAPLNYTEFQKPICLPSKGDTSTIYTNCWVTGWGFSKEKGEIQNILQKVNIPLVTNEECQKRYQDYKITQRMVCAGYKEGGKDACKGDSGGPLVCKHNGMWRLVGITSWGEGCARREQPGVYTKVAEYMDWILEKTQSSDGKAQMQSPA
Sequence of Human plasma kallikrein (P03952 20-390 partner): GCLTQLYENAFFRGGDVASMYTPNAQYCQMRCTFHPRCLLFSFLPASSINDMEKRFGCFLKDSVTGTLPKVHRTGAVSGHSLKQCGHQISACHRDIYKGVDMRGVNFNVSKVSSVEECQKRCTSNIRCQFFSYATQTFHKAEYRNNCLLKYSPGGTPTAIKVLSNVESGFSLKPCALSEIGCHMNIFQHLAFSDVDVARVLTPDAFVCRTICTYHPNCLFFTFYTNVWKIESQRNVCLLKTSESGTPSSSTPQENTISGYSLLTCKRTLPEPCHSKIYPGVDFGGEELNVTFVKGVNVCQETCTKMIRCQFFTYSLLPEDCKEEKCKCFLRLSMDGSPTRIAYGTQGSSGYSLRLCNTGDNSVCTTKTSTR

For the compound `CCOc1ccc(C[C@@H](NC(=O)CC)C(=O)N[C@@H](Cc2ccccc2)C(=O)NCc2ccc(CN)c(F)c2)cc1` [Example 7, (S)-N-(4-Aminomethyl-3-fluoro-benzyl)-2-[(R)-3-(4-ethoxy-phenyl)-2-propionylamino-propionylamino]-3-phenyl-propionamide], the IC50 is 0.074 µM on Human plasma kallikrein (setting [1]) and more than 1 µM against Human KLK1 (Table 12).
In the case of `CCOc1ccc(C[C@H](C(=O)N[C@@H](Cc2ccccc2)C(=O)NCc2ccc(CN)cc2)N(C)C)cc1` [Example 13, (R)-N-[(S)-1-(4-Aminomethyl-benzylcarbamoyl)-2-phenyl-ethyl]-2-dimethylamino-3-(4-ethoxy-phenyl)-propionamide], the IC50 at Human plasma kallikrein (setting [1]) is 10 µM.
Regarding `CCOc1ccc(C[C@@H](NC(=O)CC)C(=O)N[C@@H](Cc2ccc(Cl)c(Cl)c2)C(=O)NCc2ccc(CN)cc2)cc1` [Example 16, (S)-N-(4-Aminomethyl-benzyl)-3-(3,4-dichloro-phenyl)-2-[(R)-3-(4-ethoxy-phenyl)-2-propionylamino-propionylamino]-propionamide], the IC50 at Human plasma kallikrein (setting [1]) came out at 0.053 µM; at Human KLK1 (Table 12) it was 4.9 µM.
For `CCC(=O)N[C@H](Cc1ccc(C(F)(F)F)cc1)C(=O)N[C@@H](Cc1ccc(Cl)c(Cl)c1)C(=O)NCc1ccc(CN)cc1` [Example 19], the IC50 is 10 µM on Human plasma kallikrein (setting [1]) and more than 10 µM at Human KLK1 (Table 12).
Take `C[C@@H](NC(=O)c1ccccc1)C(=O)N[C@@H](Cc1ccccc1)C(=O)NCc1ccc(CN)cc1` [Example 22, N-{(R)-1-[(S)-1-(4-Aminomethyl-benzylcarbamoyl)-2-phenyl-ethylcarbamoyl]-ethyl}-benzamide]: the 50% inhibitory concentration (IC50) at Human plasma kallikrein (setting [1]) stood at 10 µM; at Human KLK1 (Table 12), 9.6 µM.
Regarding `CCOc1ccc(C[C@@H](NC(=O)CC)C(=O)N[C@@H](Cc2ccccc2)C(=O)NCc2ccc(CN)c(Cl)c2)cc1` [Example 23, (S)-N-(4-Aminomethyl-3-chloro-benzyl)-2-[(R)-3-(4-ethoxy-phenyl)-2-propionylamino-propionylamino]-3-phenyl-propionamide], the figures for the IC50 at Human plasma kallikrein (setting [1]) and against Human KLK1 (Table 12) were 0.031 µM and 5.6 µM, respectively.
The like results for `CC(C)C[C@@H](NCC(=O)O)C(=O)N[C@@H](Cc1ccccc1)C(=O)NCc1ccc(CN)cc1` [Example 28, {(R)-1-[(S)-1-(4-Aminomethyl-benzylcarbamoyl)-2-phenyl-ethylcarbamoyl]-3-methyl-butylamino}-acetic acid] were, in that order, 8.9 µM and more than 10 µM.
For `COC(=O)CN[C@H](CC1CCCCC1)C(=O)N[C@@H](Cc1ccccc1)C(=O)NCc1ccc(CN)cc1` [Example 46, {(R)-1-[(S)-1-(4-Aminomethyl-benzylcarbamoyl)-2-phenyl-ethylcarbamoyl]-2-cyclohexyl-ethylamino}-acetic acid methyl ester], the results for the IC50 on Human plasma kallikrein (setting [1]) and against Human KLK1 (Table 12) were 1.2 µM and more than 10 µM, respectively.
Regarding `COC(=O)CN[C@H](CC1CCCCC1)C(=O)N[C@@H](Cc1ccccc1)C(=O)NCc1ccc(CN)cc1` [Example 47, {(R)-1-[(S)-1-(4-Aminomethyl-benzylcarbamoyl)-2-phenyl-ethylcarbamoyl]-2-cyclohexyl-ethylamino}-acetic acid methyl ester], the IC50 at Human plasma kallikrein (setting [1]) is 2.1 µM; against Human KLK1 (Table 12) it was more than 10 µM.
Consider `CN(CC(N)=O)[C@H](CC1CCCCC1)C(=O)N[C@@H](Cc1ccccc1)C(=O)NCc1ccc(CN)cc1` [Example 48, (R)-N-[(S)-1-(4-Aminomethyl-benzylcarbamoyl)-2-phenyl-ethyl]-2-(carbamoylmethyl-methyl-amino)-3-cyclohexyl-propionamide], for which the results for the IC50 at Human plasma kallikrein (setting [1]) and on Human KLK1 (Table 12) were 4.7 µM and more than 10 µM, respectively.
`CN(CCO)[C@H](CC1CCCCC1)C(=O)N[C@@H](Cc1ccccc1)C(=O)NCc1ccc(CN)cc1` [Example 49, (R)-N-[(S)-1-(4-Aminomethyl-benzylcarbamoyl)-2-phenyl-ethyl]-3-cyclohexyl-2-[(2-hydroxy-ethyl)-methyl-amino]-propionamide]: the IC50 at Human plasma kallikrein (setting [1]) is 2.2 µM; at Human KLK1 (Table 12), more than 10 µM.
As for `NCc1ccc(CNC(=O)[C@H](Cc2ccccc2)NC(=O)[C@@H](CC2CCCCC2)NCC(N)=O)cc1` [Example 50, (R)-N-[(S)-1-(4-Aminomethyl-benzylcarbamoyl)-2-phenyl-ethyl]-2-(carbamoylmethyl-amino)-3-cyclohexyl-propionamide], the IC50 was found to be 4.3 µM on Human plasma kallikrein (setting [1]) and 5 µM against Human KLK1 (Table 12).
Take `CCOc1ccc(C[C@@H](N)C(=O)N[C@@H](C(=O)NCc2ccc(CN)cc2)[C@@H](O)c2ccccc2)cc1` [Example 60, (R)-2-Amino-N-[(1R,2S)-1-(4-aminomethyl-benzylcarbamoyl)-2-hydroxy-2-phenyl-ethyl]-3-(4-ethoxy-phenyl)-propionamide]: on Human plasma kallikrein (setting [1]), the IC50 stood at 10 µM.
On to `CCOc1ccc(C[C@@H](NC(=O)CC)C(=O)N[C@@H](C(=O)NCc2ccc(CN)cc2)[C@@H](O)c2ccccc2)cc1` [Example 62, (2R,3S)-N-(4-Aminomethyl-benzyl)-2-[(R)-3-(4-ethoxy-phenyl)-2-propionylamino-propionylamino]-3-hydroxy-3-phenyl-propionamide], for which the IC50 on Human plasma kallikrein (setting [1]) was not below 10 µM.
Take `CCOc1ccc(C[C@@H](NC(=O)CC)C(=O)N(CC)[C@@H](Cc2ccccc2)C(=O)NCc2ccc(CN)cc2)cc1` [Example 65, (S)-N-(4-Aminomethyl-benzyl)-2-{[(R)-3-(4-ethoxy-phenyl)-2-propionylamino-propionyl]-ethyl-amino}-3-phenyl-propionamide]: the IC50 at Human plasma kallikrein (setting [1]) was not below 10 µM.
Consider `CCOc1ccc(C[C@@H](C(=O)N[C@@H](Cc2ccccc2)C(=O)NCc2ccc(CN)cc2)N(C)C(=O)CC)cc1` [Example 66, (S)-N-(4-Aminomethyl-benzyl)-2-[(S)-3-(4-ethoxy-phenyl)-2-(methyl-propionyl-amino)-propionylamino]-3-phenyl-propionamide], for which the IC50 on Human plasma kallikrein (setting [1]) turned out to be 10 µM; against Human KLK1 (Table 12) it was 8.4 µM.
As to `CCOc1ccc(C[C@@H](NC(=O)NCc2ccccc2)C(=O)N[C@@H](Cc2ccccc2)C(=O)NCc2ccc(CN)cc2)cc1` [Example 68, (R)-N-[(S)-1-(4-Aminomethyl-benzylcarbamoyl)-2-phenyl-ethyl]-2-(3-benzyl-ureido)-3-(4-ethoxy-phenyl)-propionamide], the IC50 on Human plasma kallikrein (substrate H-DPro-Phe-Arg-AFC) is 0.861 µM; against Human KLK1 (Table 13) it was more than 10 µM.
Take `CCOc1ccc(C[C@@H](NC(=O)Nc2ccccc2)C(=O)N[C@@H](Cc2ccccc2)C(=O)NCc2ccc(CN)cc2)cc1` [Example 69, (R)-N-[(S)-1-(4-Aminomethyl-benzylcarbamoyl)-2-phenyl-ethyl]-3-(4-ethoxy-phenyl)-2-(3-phenyl-ureido)-propionamide]: the IC50 was 0.621 µM on Human plasma kallikrein (substrate H-DPro-Phe-Arg-AFC) and more than 10 µM against Human KLK1 (Table 13).
Take `CCOc1ccc(C[C@@H](NC(=O)C2CC2)C(=O)N[C@@H](Cc2ccccc2)C(=O)NCc2ccc(CN)cc2)cc1` [Example 74, Cyclopropanecarboxylic acid [(R)-1-[(S)-1-(4-aminomethyl-benzylcarbamoyl)-2-phenyl-ethylcarbamoyl]-2-(4-ethoxy-phenyl)-ethyl]-amide]: the IC50 is 0.545 µM at Human plasma kallikrein (substrate H-DPro-Phe-Arg-AFC) and more than 10 µM against Human KLK1 (Table 13).
The like results for `CCCCCC(=O)N[C@H](Cc1ccc(OCC)cc1)C(=O)N[C@@H](Cc1ccccc1)C(=O)NCc1ccc(CN)cc1` [Example 76, Hexanoic acid [(R)-1-[(S)-1-(4-aminomethyl-benzylcarbamoyl)-2-phenyl-ethylcarbamoyl]-2-(4-ethoxy-phenyl)-ethyl]-amide] were, in that order, 0.452 µM and 3.6 µM.

In general, IC50 refers to the concentration needed to halve the response being measured.
